tested on: L1210; assay: The compound was tested in vitro for growth inhibitory activity against murine leukemia L1210 cells; assay type: functional, cell-based; conditions: Mus musculus

Compound	IC50 [µM]
CCN(CC)C[C@H]1CO[C@H]2c3nc4c5ccccc5n(C)c4nc3NC(=O)N2[C@@H](CN(CC)CC)O1	17
CN1CCC(N(C)C[C@H]2CO[C@H]3c4nc5c6ccccc6n(C)c5nc4N(C)C(=O)N3[C@@H](CN(C)C3CCN(C)CC3)O2)CC1	4
CCN(CC)C[C@H]1CO[C@H]2c3nc4c5ccccc5n(C)c4nc3N(C)C(=O)N2[C@@H](CN(CC)CC)O1	6
CN1CCN(C[C@H]2CO[C@H]3c4nc5c6ccccc6n(C)c5nc4N(C)C(=O)N3[C@@H](CN3CCN(C)CC3)O2)CC1	20
CN(C)CCCN(C)C[C@H]1CO[C@H]2c3nc4c5ccccc5n(C)c4nc3N(C)C(=O)N2[C@@H](CN(C)CCCN(C)C)O1	24
Cc1c2ccncc2c(C)c2c1[nH]c1ccccc12 [ELLIPTECINE]	0.5

— ChEMBL document CHEMBL1129807, “Design and synthesis of 3,5-dialkylamino substituted 8H,10H-3(R),5(R),15b(S)-2,3,6,7-tetrahydro-1,5,3-dioxazepino[3,2-c]indolo[3,2-g]pteridine-7-ones” (Bioorg Med Chem Lett, 1997)
